Key:
BV-2 cells = test: RT-PCR of TNF-α, IL-1β, iNOS and COX-2 mRNA in LPS-induced BV-2 cells; assay type: cell-based, murine; conditions: 1 μg/ml LPS, 10, 20, 50 μM, 24 h
Method: Total RNA was extracted using TRIzol reagent (Life Technologies, NY) and then reverse-transcribed into cDNA by reverse transcriptase (Invitrogen). mRNA expression of target genes iNOS, COX-2, IL-1β and TNF-α was quantified in comparison to housekeeping gene GAPDH using SYBR green detection method on ABI 7500 system (Applied Biosystems). The relative gene expression was calculated using comparative Ct (ΔΔCt) method. The following primers in Table 1 were used in this study.

[1] = system: AChE in C. elegans CL4176; test: AChE activity of C. elegans CL4176; assay type: in vivo, Caenorhabditis elegans; conditions: CL4176 nematodes
Method: AChE activity of C. elegans was determined by the method as described ([Xin et al., 2013]). Briefly, approximately 1,000 nematodes with or without circumdatin D treatment were collected and then triturated mechanically in PBS (50 mM, pH 7.4) on ice. The lysate supernatant was collected by centrifugation and AChE activity in the supernatant was determined using modified Ellman method. The protein concentration was determined by BCA protein assay. AChE activity was expressed as U/mg proteins.

[2] = target: T1, acetylcholinesterase (AChE) from Electrophorus electrics (Electric eel) (Electrophorus electricus, UniProt O42275); test: biochemical; conditions: modified Ellman's colorimetric method; mean ± SD (n = 3)
T1 construct: purchased Sigma Chemical Co. (St Louis, MO, USA)
T1 sequence (O42275 24-633): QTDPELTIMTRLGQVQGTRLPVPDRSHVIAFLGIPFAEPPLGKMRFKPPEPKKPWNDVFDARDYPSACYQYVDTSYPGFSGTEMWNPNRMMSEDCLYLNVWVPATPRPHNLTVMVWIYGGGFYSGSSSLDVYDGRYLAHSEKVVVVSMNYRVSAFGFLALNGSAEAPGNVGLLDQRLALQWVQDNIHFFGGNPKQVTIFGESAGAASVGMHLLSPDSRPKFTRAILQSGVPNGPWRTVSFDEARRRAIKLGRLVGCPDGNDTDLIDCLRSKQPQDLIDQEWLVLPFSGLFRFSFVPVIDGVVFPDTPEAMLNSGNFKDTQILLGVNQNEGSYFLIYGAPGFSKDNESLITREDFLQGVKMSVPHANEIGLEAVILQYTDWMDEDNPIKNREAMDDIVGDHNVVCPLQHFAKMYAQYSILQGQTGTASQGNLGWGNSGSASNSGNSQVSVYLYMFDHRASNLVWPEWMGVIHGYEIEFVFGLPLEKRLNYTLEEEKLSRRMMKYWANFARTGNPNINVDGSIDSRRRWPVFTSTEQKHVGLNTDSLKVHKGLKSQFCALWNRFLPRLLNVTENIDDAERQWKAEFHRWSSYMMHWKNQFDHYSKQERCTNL
Text: Dulbecco's modified Eagle medium (DMEM), α-minimum essential medium (α-MEM) and fetal bovine serum (FBS) were provided by Hyclone (Waltham, USA). 3-(4,5-Dimethylthiazol-2-yl)-2,5-diphenyltetrazolium bromide (MTT), acetylcholinesterase (AChE) from Electrophorus electrics (Electric eel) and lipopolysaccharide (LPS) (Escherichia coli 055: B5) were provided by Sigma Chemical Co. (St Louis, MO, USA). Enzyme-linked immunosorbent assay (ELISA) kits for IL-1β and TNF-α and Griess reagent for nitric oxide (NO) assay kit were provided by ExCell Bio (Shanghai, China). Antibodies for TLR4, MyD88, JNK, p-JNK, p38, p-p38, ERK, p-ERK, IκB, p-IκB, IKK, p-IKK, NF-κB, STAT3、p-STAT3、Jak2, p-Jak2, GAPDH and Histone H3 were purchased from Cell Signaling Technology (Danvers, USA). Antibodies for iNOS and COX-2 were provided by Abcam (Cambridge, UK).
(§1) AChE activities in vitro and in vivo were assessed by a modified Ellman's spectrophotometric method ([Szwajgier, 2015]). Briefly, AChE (80 μl) in phosphate buffer (Na2HPO4/NaH2PO4, pH 8.0) and compound (20 μl) diluted in same phosphate buffer were added to 96 microplates as the reaction mixture. The mixture was incubated at 37°C for 30 min before addition of 10 μl 5,5′-dithiobis (2-nitrobenzoic acid) (DTNB) (3 mM) and 10 μl acetylthiocholine iodide (ATCI) (15 mM). After incubation for 20 min, the absorbance was detected at 412 nm using a microplate spectrophotometer (Thermo Scientifics, USA). […] The inhibitory rate of AChE was calculated, and the IC50 values were calculated by GraphPad Prism® 5.0 software (GraphPad Inc., San Diego, USA).

TLR4 and MyD88 = test: Western blot of TLR4 and MyD88 in LPS-induced BV-2 cells; assay type: cell-based, murine; conditions: 1 μg/ml LPS, 10, 20, 50 μM, 6 h
Method: Total cell proteins were lysed using cell extraction buffer containing phenylmethylsulfonyl ﬂuoride and protease inhibitor cocktail. The cytosolic and nuclear extracts were collected using the Nuclear and Cytosolic extraction kit. The protein extracts were separated on SDS-PAGE and transferred to PVDF membranes (Millipore). The membrane was blocked with 5% nonfat milk for 1 h at room temperature, and incubated with indicated primary antibodies overnight at 4°C. After washing, the membrane was incubated with secondary antibodies conjugated to horseradish peroxidase (Proteintech, USA) at room temperature for 1 h. Then, the proteins of interest were visualized utilizing a chemiluminescence (ECL) detection system. The relative optical densities were analyzed using the Image Master™ 2D Elite software.

[3] = target: T2, AChE in primary cortical neurons (Rattus norvegicus, UniProt P37136); test: AChE activity in LPS-treated primary neurons (modified Ellman); assay type: cell-based; conditions: 1 μg/ml LPS, 1–100 μM, 48 h
T2 construct: primary cortical neurons were isolated from embryos of pregnant Sprague Dawley rats of E-18; endogenous in cells; host or cells: primary cortical neurons from E-18 Sprague Dawley rat embryos
T2 sequence (P37136 32-614): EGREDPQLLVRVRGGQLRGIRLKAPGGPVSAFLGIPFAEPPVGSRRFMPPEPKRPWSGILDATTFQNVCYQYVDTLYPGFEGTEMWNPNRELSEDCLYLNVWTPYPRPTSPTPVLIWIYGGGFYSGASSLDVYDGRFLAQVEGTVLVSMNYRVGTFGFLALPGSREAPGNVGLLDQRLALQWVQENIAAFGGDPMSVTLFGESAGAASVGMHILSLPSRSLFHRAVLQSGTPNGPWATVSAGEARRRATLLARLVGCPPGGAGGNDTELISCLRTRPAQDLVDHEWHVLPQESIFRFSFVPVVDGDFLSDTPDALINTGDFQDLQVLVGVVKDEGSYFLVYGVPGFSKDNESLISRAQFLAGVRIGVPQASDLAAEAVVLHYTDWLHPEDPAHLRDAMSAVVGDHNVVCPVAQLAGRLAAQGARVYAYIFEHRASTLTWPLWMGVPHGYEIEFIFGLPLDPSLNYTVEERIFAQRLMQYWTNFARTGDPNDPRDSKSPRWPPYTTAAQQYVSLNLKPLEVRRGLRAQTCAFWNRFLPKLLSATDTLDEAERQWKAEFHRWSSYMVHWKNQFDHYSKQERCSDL
Method: as §1

primary microglia cells = test: MTT assay in primary microglia; assay type: cell-based, Sprague Dawley rats; conditions: untreated and LPS-stimulated cells, 1–100 μM, 48 h
Method: (§2) Primary microglia were prepared from the cortical tissue of neonatal (1–3 d) Sprague Dawley rats as [Ni and Aschner (2010)] described and primary cortical neurons were isolated from embryos of pregnant Sprague Dawley rats of E-18 ([Zeng et al., 2012]). All experimental manipulations with the animals was reviewed and approved by the animal experimental ethics committee of Peking University. The animals used in the work were performed in accordance with the Animal Care and Use Guidelines of Peking University.
(§3) In vitro cytotoxicity was detected using the MTT assay. Cells were treated with different concentrations of circumdatins in the presence or absence of LPS for 48 h. Then, MTT reagent was added to each well and the plates were further incubated at 37°C for 4 h. The absorbance was read at 570 nm using a microplate spectrophotometer (Thermo Scientifics, USA).
Cell surviability was detected using the MTT assay. Cells were seeded in 96-well plates and incubated overnight, following which the cells were treated with different concentrations of circumdatins with or without 1µg/mL of LPS for indicated time. Then, the cells were subsequently cultured with MTT and incubated for 4 hours at 37°C. Thereafter, the purple formazan dye was dissolved in DMSO and the absorbance was measured at 570 nm.

primary cortical neurons = test: MTT assay in primary neuron-enriched cells; assay type: cell-based, Sprague Dawley rats; conditions: 48 h, 1–100 μM
Method: as §2, §3

C. elegans CL4176 = test: qRT-PCR of ace-1, ace-2, F22E5.6 and ZC239.12 in CL4176; assay type: in vivo, Caenorhabditis elegans; conditions: CL4176, 36 h post temperature up-shift
Text: Related gene expression levels were detected as [Xin et al. (2013)] described. After treatment, CL4176 worms were collected and total RNA was extracted using TRIzol method. The cDNA was synthesized using cDNA synthesis kit (Invitrogen) according to manual instructions. The mRNA expression of target genes viz. F22E5.6, ZC239.12, ace-1 and ace-2 was quantified in comparison to housekeeping gene F23B2.13 using SYBR green detection method on ABI 7500 system (Applied Biosystems). The relative gene expression was calculated using comparative Ct (ΔΔCt) method. The following primers in Table 2 were used in this study.

For `COc1ccc2c(c1)C(=O)N1CCC[C@H]1c1nc3ccc(OC)cc3c(=O)n1-2` [circumdatin D], the “iNOS and COX-2 mRNA expression levels (q-PCR)” value (BV-2 cells) was “dose-dependently decreasing the expression levels of both iNOS and COX-2”, the “proinflammatory cytokines mRNA levels” value (BV-2 cells) was “significantly decreased proinflammatory cytokines” and the “AChE activity elevated upon temperature upshift” value [1] was “significantly attenuated these changes in a dose-dependent manner”. For the same compound, the IC50 [2] was 2400 ± 500 nM, the “LPS-induced TLR4 expression” value (TLR4 and MyD88) was “dramatically reversed the LPS-induced TLR4 expression” and the MyD88 expression (TLR4 and MyD88) was “suppressed the MyD88 expression”. For the same compound, the “LPS-induced AChE activity in primary neuronal cells” value [3] was “markedly reduced the LPS-induced AChE activities”, the “toxicity in primary microglial cultures (MTT)” value (primary microglia cells) was “low toxicity” and the “direct toxicity to neurons (MTT)” value (primary cortical neurons) was “no direct toxic to neurons”. For the same compound, the “AChE genes (ace-1, ace-2) and inflammation related genes (F22E5.6, ZC239.12) expression” value (C. elegans CL4176) was “inhibited temperature raise-induced AChE and inflammation-associated gene expressions”.
